Test results from ChEMBL document CHEMBL1154028, “Pyrazole acids as niacin receptor agonists for the treatment of dyslipidemia” (Bioorg Med Chem Lett, 2009).
Values belong to the molecule of their own block, whether it stands above or below them. Activity calls are given as the source filed them. The calls are words filed in the database; no cut-off is given here.

Columns and labels:
[1] = Cmax in mouse at 1 mg/kg, iv or 2 mg/kg, po; format: ADME, organism-based; conditions: in vivo
[2] = Oral bioavailability in mouse at 2 mg/kg; format: ADME, organism-based; conditions: in vivo
[3] = Volume of distribution at steady state in mouse at 1 mg/kg, iv or 2 mg/kg, po; format: ADME, organism-based; conditions: in vivo, read-out: Vdss
[4] = target: Hydroxycarboxylic acid receptor 2 (Homo sapiens) (UniProt Q8TDS4); assay: Displacement of [3H]niacin from human niacin receptor expressed in […] cells at 25 uM in absence of 5% human serum; format: cell-based
Hydroxycarboxylic acid receptor 2 (Homo sapiens), sequence (Q8TDS4 whole entry): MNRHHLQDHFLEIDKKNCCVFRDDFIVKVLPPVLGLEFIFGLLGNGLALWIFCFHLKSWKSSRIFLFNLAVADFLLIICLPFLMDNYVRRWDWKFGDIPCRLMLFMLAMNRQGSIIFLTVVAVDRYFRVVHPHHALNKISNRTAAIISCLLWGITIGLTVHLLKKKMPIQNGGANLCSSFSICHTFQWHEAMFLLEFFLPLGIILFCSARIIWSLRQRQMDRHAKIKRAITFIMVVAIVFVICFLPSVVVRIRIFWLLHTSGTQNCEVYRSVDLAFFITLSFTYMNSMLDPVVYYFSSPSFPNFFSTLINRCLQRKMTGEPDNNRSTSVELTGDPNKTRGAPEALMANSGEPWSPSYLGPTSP

[5] = target: Hydroxycarboxylic acid receptor 2 (Homo sapiens) (UniProt Q8TDS4); assay: Displacement of [3H]niacin from human niacin receptor expressed in […] cells at 25 uM in presence of 5% human serum; format: cell-based
[6] = Half life in mouse at 1 mg/kg, iv or 2 mg/kg, po; format: ADME, organism-based; conditions: in vivo
[7] = Plasma clearance in mouse at 1 mg/kg, iv or 2 mg/kg, po; format: ADME, organism-based
Rattus norvegicus [8] = assay: Toxicity in rat assessed as changes in rat ear blood perfusion upto 30 mg/kg, sc; format: organism-based; set-up: dose 30 mg/kg, route subcutaneous; conditions: in vivo
Blood = assay: Drug level in rat blood at 30 mg/kg, sc; format: ADME, organism-based; set-up: dose 30 mg/kg, route subcutaneous; conditions: in vivo, read-out: Drug uptake
Rattus norvegicus [9] = assay: Decrease in blood free fatty acid level in rat at 3 mg/kg, po; format: functional; set-up: scale not given: the % may be the effect or the level left
Rattus norvegicus [10] = assay: Decrease in blood free fatty acid level in po dosed rat
Rattus norvegicus [11] = assay: Decrease in blood free fatty acid level in rat at 100 mg/kg, po after 20 mins; format: functional, organism-based; set-up: dose 100 mg/kg

Cmax [1]: 2.3 µM | bioavailability [2]: 47% | Vd [3]: 2.4 L/kg | Activity [4]: 90% | Activity [5]: 88% | half-life [6]: 2.6 h | clearance [7]: 1.26 L/h/kg
SMILES: O=C(O)c1n[nH]c2c1CC(c1cccnc1F)CC2 (racemic)

Activity [4]: 60% | Activity [5]: 69%
SMILES: O=C(O)c1n[nH]c2c1CC(c1ccnc(F)c1)CC2 (racemic)

Activity [5]: 17%
SMILES: Fc1ccc(F)c(C2CCc3[nH]nc(-c4nnn[nH]4)c3C2)c1 (racemic)

Activity [4]: 19% | Activity [5]: 35%
SMILES: O=C(O)c1n[nH]c2c1CC(c1ccccc1)CC2 (racemic)

Activity [5]: 18%
SMILES: O=C(O)c1n[nH]c2c1CC(c1ccccc1F)CC2 (racemic)

Activity [4]: 40% | Activity [5]: 75%
SMILES: Fc1ncccc1C1CCC2=C(C1)C(=C1N=NN=N1)N=N2 (centres undefined)

Activity [5]: 20%
SMILES: O=C(O)c1n[nH]c2c1CC(c1ccccc1Cl)CC2 (racemic)

Activity [4]: 63%
SMILES: O=C(O)c1n[nH]c2c1CCC(c1ccccc1)C2 (racemic)

concentration (Blood): 135 µM | EC50 (Rattus norvegicus [10]): 3 µM
SMILES: Br.O=C(O)c1n[nH]c2c1CC(c1cc(F)ccc1F)CC2 (centres undefined)
Activity (Rattus norvegicus [8]): Non-toxic | Activity (Rattus norvegicus [9]): 50%

Cmax [1]: 3.3 µM | bioavailability [2]: 53% | Vd [3]: 1.4 L/kg | half-life [6]: 2.9 h | clearance [7]: 0.498 L/h/kg
SMILES: O=C(O)c1n[nH]c2c1CC(c1cc(F)ccc1F)CC2 (racemic)

Activity [4]: 56% | Activity [5]: 84%
SMILES: O=C(O)c1n[nH]c2c1CC(c1cc(F)ccc1F)CC2 (centres undefined)
Activity (Rattus norvegicus [11]): Active
